Laboratory results: patent publication US20250101017A1, “SALT CRYSTAL FORM AND FREE BASE CRYSTAL FORM OF KINASE INHIBITOR” (CYTOSINLAB THERAPEUTICS CO., LTD., priority 2022, published 2025)
Where two headings read alike, the source gives them in different places.

Tests used:
Assay type in all cases: physicochemical
[1] = Competitive pulping of API (free base Form A) and Form B in saturated DCM or water solution at 50° C., XRPD
Protocol: A saturated solution of API (free base Form A) in DCM and water was prepared. Approximately 10 mg of API (free base Form A) and free base crystal form Form B was weighed respectively and added into a 4 ml glass bottle, and 1 mL of the saturated solution was added. […] The resulting solid was subjected to XRPD testing.

[2] = Dynamic moisture adsorption (DVS), hygroscopicity; details: DVS; for moisture absorption weight gain: 80% RH humidity
Protocol: DSV pattern determination method: Dynamic moisture adsorption was performed using Intrinsic DVS. In step mode, the sample is subjected to loop testing at a relative humidity of 0-90%. The sample is analyzed at 10% RH. The dm/dt is set to 0.002 to achieve equilibrium between the sample and the room environment.
Approximately 250 mg of API was weighed and added into a 4 ml glass vial, and 2.5 ml of ethyl acetate was added. The mixture was stirred overnight under magnetic stirring at 50° C., cooled to room temperature, and then filtered, and the obtained solid was dried in vacuum overnight in a 50° C. oven. The resulting solid was free base crystal form Form B. The free base crystal form Form B was subjected to various characterization.

[3] = Solid stability of crystal forms (80° C., light exposure, 25° C./60% RH, 40° C./75% RH); purity by liquid chromatography and XRPD of the solids
Protocol: A certain amount of API and malate crystal form VII-A were weighed and added into a liquid phase vial, and a total of 9 parallels were prepared. The 9 parallels were placed separately in 80° C. (open); 25° C., 60% RH (open); 40° C., 75% RH (open); and light stability box closed). The stabilities under conditions of: 80° C. for one day, light exposure for 10 days, as well as 25° C., 60% RH and 40° C., 75% RH for one and two weeks were tested, and the XRPD of the solids were measured.
A certain amount of crystal form B was weighed and added into a liquid phase vial, and a total of 9 parallels were prepared. 9 parallels were placed separately in 80° C.; 25° C., 60% RH, 40° C., 75% RH; and light stability boxe.

[4] = Solubility at 37° C. in buffer solutions with different pH (about 10 mg in 1 ml, 2 h and 24 h); filtrate concentration and pH, XRPD of remaining solid; details: thermodynamic from solid, read-out: Solubility at 37° C.
Protocol: Approximately 10 mg of malate crystal form VII-A and free base Form A were weighed separately, and 1 ml of buffer solutions with different pH were added to make the solution supersaturated, and the mixtures were stirred at 37° C. for 2 h and 24 hours. The samples were filtered, and the filtrates were measured to determine the concentration and pH value, and the remaining solid was subjected to XRPD determination. The specific results were as follows: […]

[5] = 25° C., 60% RH, 1 week, listed as API
[6] = 25° C., 60% RH, 2 weeks, listed as API
[7] = 40° C., 75% RH, 1 week, listed as API
[8] = 40° C., 75% RH, 2 weeks, listed as API
[9] = Light control, 10 days, listed as API
[10] = Light exposure, 10 days, listed as API

SMILES: CCc1nc2c(N)ncc(-c3ccc(N4CCC(N5CCN(CC)CC5)CC4)c(OC)c3)c2nc1NC1CCOCC1 [Free base Form A, 3-ethyl-8-(4-(4-(4-ethylpiperazin-1-yl)piperidin-1-yl)-3-methoxyphenyl)-N2-(tetrahydro-2H-pyran-4-yl) pyridino [3,4-b]pyrazine-2,5-diamine]
- solid crystal form obtained by competitive pulping ([1]; API and Form B together in DCM, 50° C., 3 days, XRPD): tended to approach Form L
- appearance after competitive pulping ([1]; API and Form B together in DCM, after 5 days of beating): became oily
- crystal form obtained by competitive pulping ([1]; API and Form B together in water, 50° C., 3 days, XRPD): a mixture of Form B and API
- XRPD results ([1]; competitive pulping of API and Form B, DCM, 50° C., 3 days): Form K
- moisture absorption weight gain [2]: 1.05%
- moisture absorption weight gain ([2]; listed as API): 11.12%
- hygroscopicity [2]: slight hygroscopicity
- Degradation (%) ([3]; 25° C., 60% RH (open), 1 week): 0.03%
- Purity (%) ([3]; 25° C., 60% RH (open), 1 week): 95.50%
- Crystal form ([3]; 25° C., 60% RH (open), 1 week, XRPD): Unchanged
- Degradation (%) ([3]; 25° C., 60% RH (open), 2 weeks): 0.04%
- Purity (%) ([3]; 25° C., 60% RH (open), 2 weeks): 95.49%
- Crystal form ([3]; 25° C., 60% RH (open), 2 weeks, XRPD): Unchanged
- Crystal form ([3]; 25° C., 60% RH, 1 week): Unchanged
- Degradation [3, 5]: 0.03%
- Purity [3, 5]: 95.50%
- Crystal form ([3]; 25° C., 60% RH, 2 weeks): Unchanged
- Degradation [3, 6]: 0.04%
- Purity [3, 6]: 95.49%
- Degradation (%) ([3]; 40° C., 75% RH (open), 1 week): 0.04%
- Purity (%) ([3]; 40° C., 75% RH (open), 1 week): 95.49%
- Crystal form ([3]; 40° C., 75% RH (open), 1 week, XRPD): Unchanged
- Degradation (%) ([3]; 40° C., 75% RH (open), 2 weeks): 2.93%
- Purity (%) ([3]; 40° C., 75% RH (open), 2 weeks): 92.60%
- Crystal form ([3]; 40° C., 75% RH (open), 2 weeks, XRPD): Unchanged
- Crystal form ([3]; 40° C., 75% RH, 1 week): Unchanged
- Degradation [3, 7]: 0.04%
- Purity [3, 7]: 95.49%
- Crystal form ([3]; 40° C., 75% RH, 2 weeks): Unchanged
- Degradation [3, 8]: 2.93%
- Purity [3, 8]: 92.60%
- Degradation (%) ([3]; 80° C. (open), 1 day): 0.14%
- Purity (%) ([3]; 80° C. (open), 1 day): 95.39%
- Crystal form ([3]; 80° C. (open), 1 day, XRPD): changed
- Crystal form ([3]; 80° C., 1 day, listed as API): changed
- Degradation ([3]; 80° C., 1 day, listed as API): 0.14%
- Purity ([3]; 80° C., 1 day, listed as API): 95.39%
- Degradation (%) ([3]; Light contral, 10 days): 0.02%
- Purity (%) ([3]; Light contral, 10 days): 95.51%
- Crystal form ([3]; Light contral, 10 days, XRPD): Unchanged
- Crystal form ([3]; Light control, 10 days): Unchanged
- Degradation [3, 9]: 0.02%
- Purity [3, 9]: 95.51%
- Degradation (%) ([3]; Light exposure, 10 days): 7.89%
- Purity (%) ([3]; Light exposure, 10 days): 88.14%
- Crystal form ([3]; Light exposure, 10 days, XRPD): changed
- Crystal form [3, 10]: changed
- Degradation [3, 10]: 7.89%
- Purity [3, 10]: 88.14%
- Purity (%) ([3]; initial): 95.53%
- Purity ([3]; initial, listed as API): 95.53%
- Degradation ([3]; light exposure and 40° C., 75% RH): varying degrees of degradation
- solubility at 2 h ([4]; buffer solution pH 1.2, 37 °C, pH 1.2, simulated gastric fluid, medium pH 1.2, 2 h): > 10000 µg/mL
- solubility at 24 h ([4]; buffer solution pH 1.2, 37 °C, pH 1.2, simulated gastric fluid, medium pH 1.2, 24 h): > 10000 µg/mL
- solubility at 2 h ([4]; buffer solution pH 3.0, 37 °C, pH 3, aqueous buffer, medium pH 3.0, 2 h): > 10000 µg/mL
- solubility at 24 h ([4]; buffer solution pH 3.0, 37 °C, pH 3, aqueous buffer, medium pH 3.0, 24 h): > 10000 µg/mL
- solubility at 2 h ([4]; buffer solution pH 4.5, 37 °C, pH 4.5, aqueous buffer, medium pH 4.5, 2 h): > 10000 µg/mL
